According to patent US20210268122A1, “INHIBITION OF S[…] PROTEIN INHIBITORS OF CYSTEINE PROTEASES” (DYVE BIOSCIENCES, INC., priority 2017, published 2021):
Like-named read-outs stand apart in the source and are kept apart here.

Key:
LL/2 cells = details: SCID-beige mice, 1×10^6 LL/2 cells intravenously; treatment for 120 days
Experimental: In vivo tests were performed as follows: SCID-beige mice aged 6 weeks were injected intravenously with 1×10^6 LL/2 cells.
The treatment groups were:
Group A (Negative Control): Untreated
Volumes of primary tumors were measured twice weekly.

MDA-MB-231/eGFP cells [1] = details: Example 14, Ncr nude mice
MDA-MB-231/eGFP cells [2] = tested on: MDA-MB-231/eGFP cells
[3] = tested on: MMTV-PyMT-transgenic mouse model; details: cited from earlier work
RIP1-Tag2 mice = details: 100 μL topically once daily
Excerpt: Trial design was built to assess these primary outcomes: the effects on angiogenesis and tumor growth. Treatment groups randomized as follows:
Each applied topically once daily. Formulations are detailed below:

cysteine cathepsin = details: after intra-peritoneal injections; cited from earlier work
[4] = gross necropsy at end of 120 day survival experiment
[5] = Example 13, Ncr nude mice, gross necropsy at end of 120 day survival experiment

Compound	mice surviving to 120 days (LL/2 cells) [%]	% of mice surviving to 120 days (MDA-MB-231/eGFP cells [1]; MDA-MB-231/eGFP orthotopic) [%]	metastatic rate, intestinal (MDA-MB-231/eGFP cells [1]; [4]) [%]	metastatic rate, lung (MDA-MB-231/eGFP cells [1]; [4]) [%]	metastatic rate, lymph node (MDA-MB-231/eGFP cells [1]; [4]) [%]	metastatic rate, mesentery (MDA-MB-231/eGFP cells [1]; [4]) [%]	% of mice surviving to 120 days (MDA-MB-231/eGFP cells [2]; Example 13, Ncr nude mice, MDA-MB-231/eGFP orthotopic) [%]	metastatic rate, intestinal (MDA-MB-231/eGFP cells [2]; [5]) [%]	metastatic rate, lung (MDA-MB-231/eGFP cells [2]; [5]) [%]	metastatic rate, lymph node (MDA-MB-231/eGFP cells [2]; [5]) [%]	metastatic rate, mesentery (MDA-MB-231/eGFP cells [2]; [5]) [%]	primary tumor growth rates (MDA-MB-231/eGFP cells [2]; Example 13, compared among all active groups B, C, D, E)	activity against early and advanced mammary cancer stages [3]	reduction in the number of angiogenic islets relative to the Control Group (RIP1-Tag2 mice; at 10.5 weeks of age) [%]	reduction of cumulative tumor volume relative to the Control Group (RIP1-Tag2 mice; at 14.5 weeks of age) [%]	cysteine cathepsin activities in mammary and in lungs (cysteine cathepsin)	cysteine cathepsin activities in pancreas, kidney, and liver (cysteine cathepsin)
O=C([O-])O.[Na+] [Group B (Oral Buffer, Positive Control), sodium bicarbonate]	20	60	0	8	27	0	60	0	8	27	0	the same					
JPM-OEt													active	49	67	not significantly affected	effective inhibition
